Like-named read-outs stand apart in the source and are kept apart here.
How the values were obtained:
[1] = system: endothelin-1 (ET-1) synthesis in porcine coronary artery endothelial cells (PCAECs); test: Basal ET-1 release into the medium by PCAECs (ELISA); format: cell-based; conditions: for effect on basal ET secretion: 2 nmol/L, PCAECs incubated 4, 8, 12 and 24 hours
Source text: (§1) Hearts from female pigs were obtained from a local slaughter house and placed in ice-cold oxygenated DMEM (Gibco, Rockville, Md. now Invitrogen, Carlsbad Calif., hereinafter “Gibco”) containing antibiotics (Gibco). The epicardial coronary arteries were isolated, and the fat and connective tissue were removed. Endothelial cells were isolated by collagenase/dispase digestion (Ohbayashi, A., et al., Biochem. Brophys. Res. Commun. 202:504 (1994), the disclosure of which is incorporated herein be reference (“Ohbayashi, et al.”)). The isolated cells were washed in DMEM/F12 medium (Gibco) supplemented with 10% fetal calf serum (“FCS”) (HyClone Laboratories, Logan, Utah) and endothelial cell growth supplement (Clonetics, Walkersville, Md.), and cells were grown to confluence under standard tissue culture conditions. The purity of the cultures, which was characterized by immunostaining with factor VIII antigen (Sigma, St. Louis, Mo.) and by assaying the preferential uptake of the fluorescent probe Dil-acetylated low density lipoprotein (Biomedical Technologies, Inc., Stoughton, Mass.), (Ohbayashi, et al.) was 98%. Cells were passaged by trypsinization, and cells in second and third passage were used for all experiments in this example.
(§2) To study the effects of estradiol and its metabolites on ET-1 synthesis in porcine coronary artery endothelial cells (“PCAECs”) (Gibco), confluent monolayers of PCAECs were washed twice with HBSS (Gibco) and treated with DMEM/F12 (gibco) supplemented with 0.4% bovine serum albumin (BSA) containing or lacking 0.001 to 1 μmol/L of estradiol, 2-hydroxyestradiol, or 2-methoxyestradiol (Steraloids, Newport, R.I.). […] The supernatants were collected for ET-1 analysis, and the samples were frozen at −70° C. until analyzed. ET-1 levels were measured with the BIOTRAK™ (Amersham Pharmacia Biotech Europe Gmbh, Dubendorf, Switzerland) high-sensitivity endothelin-1 human ELISA system.
To analyze the effects of estradiol and its metabolites on the basal synthesis of ET-1, cells were pretreated with or without the various above-listed agents and with and without ICI182780 for 24 hours and were fed fresh DMEM/F12 supplemented with 0.4%; BSA (Sigma) and the respective treatments. The supernatants were collected after 4, 8, 12, and 24 hours and the ET-1 levels were analyzed.

[2] = system: endothelin-1 (ET-1) synthesis in porcine coronary artery endothelial cells (PCAECs); test: Stimulated (FCS, angiotensin II, thrombin, TNFα) ET-1 release into the medium by PCAECs (ELISA); format: cell-based; design: induction of ET-1 secretion (percentage increase vs vehicle-treated controls): dose or concentration left out as unconfirmed; conditions: for inhibition of FCS-induced ET-1 secretion / inhibition of TNFα-induced ET-1 secretion / inhibition of angiotensin II-induced ET-1 secretion / inhibition of thrombin-induced ET-1 secretion / inhibition at 0.001 µM: 1 nmol/L; for reversal by ICI182780 of the compound's inhibitory effect on FCS-stimulated ET-1 secretion: ICI182780 50 μmol/L; for effectiveness in inhibiting basal and stimulated ET-1 secretion compared with estradiol: order of potency 2-methoxyestradiol>2-hydroxyestradiol>estradiol; for effect on FCS-induced ET-1 synthesis: 10 nmol/L; for inhibition at 0.001 µM: Sus scrofa, Endothelial cell; for induction of ET-1 secretion (percentage increase vs vehicle-treated controls): stimulus alone
Source text: as §1, §2
Cells were also treated as above in the presence and absence of the estradiol receptor (“ER”) antagonist, ICI182780 (50 μmol/L; Tocris Cookson Ltd, Ballwin, Mo.). To analyze whether the inhibitory effects of estradiol were mediated by means of ER-β, the effects of genistein (0.001 to 10 μmol/L) (Sigma) were investigated. To evaluate whether the effects of estradiol were mimicked by various clinically used estrogens, the cells were treated as above, in the presence and absence of ICI182780, with 10 nmol/L of estradiol valerate, estradiol cypionate, estradiol benzoate, 17α-estradiol, estrone, estriol or estrone sulfate (all from Sigma), and the ET-1 synthesis in response to FCS (2.5%) was analyzed.

[3] = system: mitogen-activated protein kinase (MAPK) activity in PCAECs; test: FCS-induced MAPK activity in PCAECs; format: cell-based, porcine
Source text: Hearts from female pigs were obtained from a local slaughter house and placed in ice-cold oxygenated DMEM (Gibco, Rockville, Md. now Invitrogen, Carlsbad Calif., hereinafter “Gibco”) containing antibiotics (Gibco). The epicardial coronary arteries were isolated, and the fat and connective tissue were removed. Endothelial cells were isolated by collagenase/dispase digestion (Ohbayashi, A., et al., Biochem. Brophys. Res. Commun. 202:504 (1994), the disclosure of which is incorporated herein be reference (“Ohbayashi, et al.”)). […] The purity of the cultures, which was characterized by immunostaining with factor VIII antigen (Sigma, St. Louis, Mo.) and by assaying the preferential uptake of the fluorescent probe Dil-acetylated low density lipoprotein (Biomedical Technologies, Inc., Stoughton, Mass.), (Ohbayashi, et al.) was 98%. Cells were passaged by trypsinization, and cells in second and third passage were used for all experiments in this example. […] Some cells were pretreated for 1 hour with ICI182780 before treatment with the test agents. After stimulation, the cells were washed with ice-cold PBS and extraction buffer (50 mmol/L β-glycerophosphate, 1.5 mmol/L EGTA, 1 mmol/L dithiothreitol, 100 μmol/L Na3VO4, 10 μg/mL aprotinin, 5 μg/mL pepstatin, […] leupeptin, and 1 mmol/L benzamidine) (all from Sigma), scraped off the plates, and sonicated for 20 seconds in 0.5 mL of extraction buffer. The extracts were collected, the cytosolic fractions were separated by centrifuging the extracts at 100,000×g for 20 minutes at 4° C., and the supernatants were diluted to a concentration of 1 mg protein/mL and stored at -70° C. for mitogen-activated protein kinase (“MAPK”) activity assays. The MAPK activity in the cytosolic extracts was quantified as described by Dubey, R. K., et al., Arterioscler. Thromb. Vasc. Biol. 20:964 (2000), the disclosure of which is incorporated herein by reference.

[4] = angiotensin II 100 nmol/L, 4 hours
[5] = 1 nmol/L, pretreated 24 hours, FCS 2.5%

C[C@]12CC[C@@H]3c4cc(O)c(O)cc4CC[C@H]3[C@@H]1CC[C@@H]2O [2-hydroxyestradiol, estra-1,3,5 (10)-triene-2,3,17-triol (17β)]
effect on basal ET secretion [1]: inhibited
inhibition of FCS-induced ET-1 secretion ([2]; FCS 2.5%, 4 hours): 31%
inhibition of TNFα-induced ET-1 secretion ([2]; TNFα 10 ng/mL, 4 hours): 35%
inhibition of angiotensin II-induced ET-1 secretion [2, 4]: 33%
inhibition of thrombin-induced ET-1 secretion ([2]; thrombin 4 U/mL, 4 hours): 40%
reversal by ICI182780 of the compound's inhibitory effect on FCS-stimulated ET-1 secretion ([2]; FCS 2.5%, 4 hours): not
effectiveness in inhibiting basal and stimulated ET-1 secretion compared with estradiol [2]: more effective
inhibition of FCS-induced MAPK activity [3, 5]: 34±4%
potency in inhibiting FCS-induced MAPK activity compared with estradiol ([3]; pretreated 24 hours, FCS 2.5%): more potent

COc1cc2c(cc1O)CC[C@@H]1[C@@H]2CC[C@]2(C)[C@@H](O)CC[C@@H]12 [2-methoxyestradiol, estra-1,3,5 (10)-triene-2-methoxy-3,17-diol (17β)]
effect on basal ET secretion [1]: inhibited
inhibition of FCS-induced ET-1 secretion ([2]; FCS 2.5%, 4 hours): 44%
inhibition of TNFα-induced ET-1 secretion ([2]; TNFα 10 ng/mL, 4 hours): 56%
inhibition of angiotensin II-induced ET-1 secretion [2, 4]: 39%
inhibition of thrombin-induced ET-1 secretion ([2]; thrombin 4 U/mL, 4 hours): 46%
reversal by ICI182780 of the compound's inhibitory effect on FCS-stimulated ET-1 secretion ([2]; FCS 2.5%, 4 hours): not
effectiveness in inhibiting basal and stimulated ET-1 secretion compared with estradiol [2]: more effective
inhibition of FCS-induced MAPK activity [3, 5]: 46±4.7%
potency in inhibiting FCS-induced MAPK activity compared with estradiol ([3]; pretreated 24 hours, FCS 2.5%): more potent

C[C@]12CC[C@@H]3c4ccc(O)cc4CC[C@H]3[C@@H]1CC[C@H]2O [17α-estradiol]
effect on FCS-induced ET-1 synthesis ([2]; FCS 2.5%, 4 hours): unable to lower ET-1 secretion

O=c1c(-c2ccc(O)cc2)coc2cc(O)cc(O)c12 [Genistein, genistein]
concentrations at which inhibitory effects on ET-1 secretion were observed ([2]; FCS 2.5%-stimulated, 4 hours, tested 0.001 to 10 μmol/L): ≥ 1 µmol/L
reversal by ICI182780 of the compound's inhibitory effect on FCS-stimulated ET-1 secretion ([2]; FCS 2.5%, 4 hours): not reversed

C[C@]12CC[C@@H]3c4ccc(O)cc4C[C@@H](CCCCCCCCC[S+]([O-])CCCC(F)(F)C(F)(F)F)[C@H]3[C@@H]1CC[C@@H]2O (some centres unmarked) [ICI182780]
effect of compound alone on basal or FCS-stimulated ET-1 synthesis ([2]; 50 μmol/L): did not influence

COc1cccc(-c2cc(=O)c3ccccc3o2)c1N [PD98059]
MAPK activity ([3]; growth-arrested cells, FCS 2.5% for 10 minutes, unstimulated 0.187, PD98059 at 10 μmol/L): 0.7 μmol/min/mg protein

C[C@]12CC[C@@H]3c4ccc(OC(=O)c5ccccc5)cc4CC[C@H]3[C@@H]1CC[C@@H]2O [estradiol benzoate]
effect on FCS-induced ET-1 synthesis ([2]; FCS 2.5%, 4 hours): inhibited
reversal by ICI182780 of the compound's inhibitory effect on FCS-stimulated ET-1 secretion ([2]; FCS 2.5%, 4 hours): reversed

C[C@]12CC[C@@H]3c4ccc(O)cc4CC[C@H]3[C@@H]1CC[C@@H]2OC(=O)CCC1CCCC1 [estradiol cypionate]
effect on FCS-induced ET-1 synthesis ([2]; FCS 2.5%, 4 hours): inhibited
reversal by ICI182780 of the compound's inhibitory effect on FCS-stimulated ET-1 secretion ([2]; FCS 2.5%, 4 hours): reversed

CCCCC(=O)O[C@H]1CC[C@H]2[C@@H]3CCc4cc(O)ccc4[C@H]3CC[C@]12C [estradiol valerate]
effect on FCS-induced ET-1 synthesis ([2]; FCS 2.5%, 4 hours): inhibited
reversal by ICI182780 of the compound's inhibitory effect on FCS-stimulated ET-1 secretion ([2]; FCS 2.5%, 4 hours): reversed

C[C@]12CC[C@@H]3c4ccc(O)cc4CC[C@H]3[C@@H]1CC[C@@H]2O [estradiol, 17β-estradiol]
effect on basal ET secretion [1]: inhibited
inhibition at 0.002 µM ([1]; Sus scrofa, Endothelial cell, 8 h, read-out: inhibition of basal synthesis of ET-1): 19 ± 2%
ET-1 secretion induced in response to FCS (percentage increase) in presence of compound ([2]; 1 nmol/L compound, FCS 2.5%, 4 hours, control 138±16%): 82±8%
ET-1 secretion induced in response to TNFα (percentage increase) in presence of compound ([2]; 1 nmol/L compound, TNFα 10 ng/mL, 4 hours, control 120±8%): 68±5%
ET-1 secretion induced in response to angiotensin II (percentage increase) in presence of compound ([2]; 1 nmol/L compound, angiotensin II 100 nmol/L, 4 hours, control 116±7%): 73±6%
ET-1 secretion induced in response to thrombin (percentage increase) in presence of compound ([2]; 1 nmol/L compound, thrombin 4 U/mL, 4 hours, control 98±6%): 53±4%
reversal by ICI182780 of the compound's inhibitory effect on FCS-stimulated ET-1 secretion ([2]; FCS 2.5%, 4 hours): completely blocked
inhibition at 0.001 µM ([2]; FCS 2.5%, 4 hours, read-out: inhibition of FCS-induced ET-1 secretion): 22%
inhibition at 0.001 µM ([2]; TNFα 10 ng/mL, 4 hours, read-out: inhibition of TNFα-induced ET-1 secretion): 26%
inhibition at 0.001 µM ([2]; angiotensin II 100 nmol/L, 4 hours, read-out: inhibition of angiotensin II-induced ET-1 secretion): 20%
inhibition at 0.001 µM ([2]; thrombin 4 U/mL, 4 hours, read-out: inhibition of thrombin-induced ET-1 secretion): 24%
reversal by ICI182780 of the compound's inhibitory effect on FCS-induced MAPK activity ([3]; ICI182780 50 μmol/L pretreatment, compound 10 nmol/L): completely reversed
inhibition at 0.001 µM ([3]; Sus scrofa, 1 nmol/L, pretreated 24 hours, FCS 2.5%): 19 ± 2.6%

C[C@]12CC[C@@H]3c4ccc(O)cc4CC[C@H]3[C@@H]1C[C@@H](O)[C@@H]2O [estriol]
effect on FCS-induced ET-1 synthesis ([2]; FCS 2.5%, 4 hours): unable to lower ET-1 secretion

TNFα
induction of ET-1 secretion (percentage increase vs vehicle-treated controls) ([2]; 4 hours): 120±8%

angiotensin II [stimulatory agent for ET-1 secretion]
induction of ET-1 secretion (percentage increase vs vehicle-treated controls) ([2]; 4 hours): 116±7%

estrone sulfate
effect on FCS-induced ET-1 synthesis ([2]; FCS 2.5%, 4 hours): unable to lower ET-1 secretion

thrombin
induction of ET-1 secretion (percentage increase vs vehicle-treated controls) ([2]; 4 hours): 98±5%
